Laboratory results as given in ChEMBL document CHEMBL1201862, “PubChem BioAssay data set” (2004).
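Protocol summary: plate cells (96-well), add compound at 5 concentrations, incubate 48 h, interpolate endpoints linearly. GI50 = concentration required for 50% inhibition of growth.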 Activity calls are given as the source filed them. Cut-off read from the data, not from the text of the source: active = GI50 up to about 1.1 µM and inactive = higher.

Legend:
Test in all cases: NCI anticancer screen, dose series, 48 h
NCI-H226 = tested on: NCI-H226
NCI-H522 = tested on: NCI-H522
SNB-19 = tested on: SNB-19
SF-539 = tested on: SF-539
Malme-3M = tested on: Malme-3M
Hs-578T = tested on: Hs-578T
TK-10 = tested on: TK-10
HT-29 = tested on: HT-29
MDA-MB-231 = tested on: MDA-MB-231
M14 = tested on: M14
UACC-62 = tested on: UACC-62
COLO 205 = tested on: COLO 205
NCI-H23 = tested on: NCI-H23
U-251 = tested on: U-251
OVCAR-5 = tested on: OVCAR-5
HL-60 = tested on: HL-60
SR = tested on: SR
OVCAR-8 = tested on: OVCAR-8
DU-145 = tested on: DU-145

Measured: GI50

OCCCCCNc1cc(O)nc(O)n1
inactive: NCI-H226 > 100 µM | NCI-H522 > 100 µM | SNB-19 > 100 µM | SF-539 > 100 µM | Malme-3M > 100 µM | Hs-578T > 100 µM | TK-10 > 100 µM | HT-29 > 100 µM | MDA-MB-231 > 100 µM | M14 > 100 µM | UACC-62 > 100 µM | COLO 205 > 100 µM | NCI-H23 > 100 µM | U-251 > 100 µM | OVCAR-5 > 100 µM | HL-60 > 100 µM | SR > 100 µM | OVCAR-8 > 100 µM

N/C(=N\O)N/N=C/c1cc(Br)cc(Br)c1O
inactive: NCI-H226 1.29 µM | NCI-H522 16.2 µM | SNB-19 7.11 µM | SF-539 4.49 µM | Malme-3M 2.96 µM | Hs-578T 26.9 µM | TK-10 5.35 µM | HT-29 11.4 µM | MDA-MB-231 4.6 µM | M14 2.43 µM | UACC-62 1.46 µM | COLO 205 13 µM | DU-145 3.19 µM | NCI-H23 7.06 µM | U-251 2.78 µM | OVCAR-5 9.86 µM | OVCAR-8 2.37 µM

O=C(N/N=C\c1cccs1)c1ccncc1
inactive: NCI-H226 > 100 µM | NCI-H522 > 100 µM | SNB-19 > 100 µM | SF-539 > 100 µM | Malme-3M > 100 µM | Hs-578T > 100 µM | TK-10 > 100 µM | HT-29 > 100 µM | MDA-MB-231 > 100 µM | M14 > 100 µM | UACC-62 > 100 µM | COLO 205 > 100 µM | NCI-H23 > 100 µM | U-251 > 100 µM | OVCAR-5 > 100 µM | HL-60 > 100 µM | SR > 100 µM | OVCAR-8 > 100 µM

COc1ccc(C2C3=C(CCCC3=O)N(c3ccccc3)C3=C2C(=O)CCC3)cc1
inactive: NCI-H226 21.6 µM | SNB-19 58.9 µM | SF-539 > 100 µM | Hs-578T 43.2 µM | TK-10 > 100 µM | HT-29 > 100 µM | M14 > 100 µM | UACC-62 87.1 µM | NCI-H23 > 100 µM | U-251 75.7 µM | OVCAR-5 > 100 µM | HL-60 > 100 µM | SR > 100 µM

Cc1ccsc1/C=N/Nc1cnccn1
inactive: NCI-H226 > 100 µM | SNB-19 > 100 µM | Malme-3M > 100 µM | Hs-578T > 100 µM | TK-10 > 100 µM | HT-29 76.9 µM | MDA-MB-231 > 100 µM | M14 > 100 µM | UACC-62 > 100 µM | COLO 205 > 100 µM | DU-145 > 100 µM | NCI-H23 > 100 µM | U-251 > 100 µM | OVCAR-5 94 µM | HL-60 35.9 µM | OVCAR-8 27.4 µM

COC(=O)c1cc(Br)c(C(=O)C(Cl)(Cl)Cl)[nH]1
inactive: NCI-H226 > 100 µM | NCI-H522 > 100 µM | SNB-19 > 100 µM | SF-539 > 100 µM | Malme-3M > 100 µM | TK-10 > 100 µM | HT-29 > 100 µM | MDA-MB-231 > 100 µM | M14 > 100 µM | UACC-62 > 100 µM | COLO 205 > 100 µM | DU-145 > 100 µM | NCI-H23 > 100 µM | U-251 > 100 µM | OVCAR-5 > 100 µM | HL-60 > 100 µM | OVCAR-8 > 100 µM

C[C@@H]1CC[C@@H]2[C@@H](C1)O[C@@H]([C@@H](C)OCc1ccccc1)SC2(C)C
inactive: NCI-H226 19.4 µM | NCI-H522 14.8 µM | SNB-19 19 µM | SF-539 17.2 µM | Malme-3M 17.2 µM | TK-10 21.7 µM | HT-29 18.8 µM | MDA-MB-231 21.5 µM | M14 19.3 µM | UACC-62 19.3 µM | COLO 205 17.6 µM | DU-145 30.8 µM | NCI-H23 21.7 µM | U-251 17.5 µM | OVCAR-5 18.3 µM | SR 17.5 µM | OVCAR-8 22.4 µM

COC(=O)c1nc(-c2nc(CCNC(=O)OC(C)(C)C)sc2Cl)sc1Cl
inactive: NCI-H226 33.3 µM | SNB-19 > 100 µM | SF-539 > 100 µM | Malme-3M 66.8 µM | Hs-578T > 100 µM | TK-10 > 100 µM | HT-29 > 100 µM | M14 32.1 µM | UACC-62 35.3 µM | COLO 205 98.4 µM | DU-145 > 100 µM | NCI-H23 44.7 µM | U-251 > 100 µM | OVCAR-5 > 100 µM | HL-60 71.9 µM | SR 35.2 µM | OVCAR-8 35.5 µM

COc1ccc(C2OC(N)=C(C#N)C3=C2CCCC3C)cc1OC (stereo not given)
inactive: NCI-H226 > 100 µM | SNB-19 > 100 µM | SF-539 > 100 µM | Malme-3M > 100 µM | Hs-578T > 100 µM | TK-10 > 100 µM | HT-29 > 100 µM | MDA-MB-231 > 100 µM | M14 > 100 µM | UACC-62 > 100 µM | COLO 205 > 100 µM | DU-145 > 100 µM | NCI-H23 > 100 µM | U-251 > 100 µM | OVCAR-5 > 100 µM | HL-60 > 100 µM | OVCAR-8 > 100 µM

CCCCCCc1cc2cc(C(=O)Nc3ccccc3F)c(=N)oc2cc1O
inactive: NCI-H522 2.69 µM | SNB-19 8.83 µM | SF-539 12.6 µM | Malme-3M 6.12 µM | Hs-578T 11.4 µM | HT-29 24.7 µM | M14 10.2 µM | UACC-62 6.55 µM | COLO 205 19.3 µM | DU-145 9.31 µM | NCI-H23 3.18 µM | U-251 4.81 µM | OVCAR-5 21.2 µM | HL-60 6.24 µM | SR 2.83 µM | OVCAR-8 2.89 µM

CC(=O)OCC1OC(n2c(N)c(C#N)c(-c3ccc(C)cc3)c(C#N)c2=S)C(OC(C)=O)C(OC(C)=O)C1OC(C)=O (stereo not given)
inactive: NCI-H226 3.53 µM | SNB-19 18.8 µM | SF-539 4.91 µM | Malme-3M 17.8 µM | Hs-578T 19.8 µM | TK-10 18.5 µM | HT-29 18.7 µM | MDA-MB-231 44.9 µM | M14 16.4 µM | UACC-62 43.5 µM | COLO 205 16 µM | DU-145 15.4 µM | NCI-H23 21.1 µM | U-251 17 µM | OVCAR-5 53.5 µM | HL-60 87.5 µM | OVCAR-8 15.2 µM

NNC(=O)CNC(=O)CSc1nnc(COc2ccc(Cl)cc2)n1-c1ccccc1
inactive: NCI-H226 > 100 µM | NCI-H522 41.8 µM | SNB-19 > 100 µM | SF-539 > 100 µM | Malme-3M > 100 µM | TK-10 > 100 µM | HT-29 > 100 µM | MDA-MB-231 > 100 µM | M14 > 100 µM | UACC-62 > 100 µM | COLO 205 > 100 µM | DU-145 > 100 µM | NCI-H23 > 100 µM | U-251 > 100 µM | OVCAR-5 > 100 µM | HL-60 > 100 µM | OVCAR-8 > 100 µM

Cc1ccc(/N=N/C(=N/NC(=O)c2cc(Cl)ccc2C(=O)c2ccccc2)c2ccc(N(CCC#N)CCC#N)cc2C)cc1
inactive: NCI-H226 10.4 µM | NCI-H522 4.81 µM | SNB-19 33.2 µM | Malme-3M 15.7 µM | Hs-578T 27.2 µM | TK-10 19.7 µM | HT-29 16.9 µM | MDA-MB-231 4.06 µM | M14 11.8 µM | UACC-62 12.9 µM | COLO 205 9.14 µM | DU-145 11.5 µM | NCI-H23 21.8 µM | U-251 8.02 µM | OVCAR-5 21.3 µM | OVCAR-8 11 µM

O=C1CCCC1CC(CN1CCOCC1)Sc1nnnn1-c1ccccc1 (stereo not given)
inactive: NCI-H226 > 100 µM | NCI-H522 > 100 µM | SNB-19 > 100 µM | SF-539 > 100 µM | Malme-3M > 100 µM | HT-29 31 µM | MDA-MB-231 72.3 µM | M14 > 100 µM | UACC-62 > 100 µM | COLO 205 16.6 µM | DU-145 77.4 µM | NCI-H23 > 100 µM | U-251 > 100 µM | OVCAR-5 72.6 µM | HL-60 16.7 µM | SR > 100 µM | OVCAR-8 > 100 µM

COc1ccc(-c2c(C(C)=O)c(-c3ccccc3)n(C3OC(COC(C)=O)C(OC(C)=O)C(OC(C)=O)C3OC(C)=O)c(=S)c2C#N)cc1 (stereo not given)
inactive: NCI-H226 > 100 µM | NCI-H522 > 100 µM | SNB-19 > 100 µM | SF-539 > 100 µM | Malme-3M > 100 µM | TK-10 > 100 µM | HT-29 > 100 µM | MDA-MB-231 > 100 µM | M14 > 100 µM | UACC-62 > 100 µM | COLO 205 > 100 µM | DU-145 > 100 µM | NCI-H23 > 100 µM | U-251 > 100 µM | OVCAR-5 > 100 µM | HL-60 > 100 µM | SR > 100 µM | OVCAR-8 > 100 µM

CCOc1ccc(N/C(=C(/C(Cl)=C(/Cl)N(CC)CC)[N+](=O)[O-])n2nnc3ccccc32)cc1
inactive: NCI-H226 37.8 µM | SNB-19 31.7 µM | SF-539 23.2 µM | Malme-3M 17.9 µM | Hs-578T 47.6 µM | HT-29 26.4 µM | MDA-MB-231 10.7 µM | M14 31.8 µM | UACC-62 13.1 µM | COLO 205 21.6 µM | NCI-H23 17.2 µM | U-251 14 µM | OVCAR-5 33.3 µM | OVCAR-8 16.2 µM
